Laboratory results reported in US7989422B2, “Antibacterial agents” (Alchemia Limited, priority 2005, dated 2011).

Experiments:
Assay type in all cases: cell-based
[1] = test system: Enterococcus faecalis ATCC 29212; assay: MIC against E. faecalis, microbroth dilution; details: MIC class
Experimental: (§1) Testing was conducted to determine the in vitro antimicrobial activity of a series of compounds synthesised by Alchemia Pty Ltd. The antimicrobial activity of each compound was determined at a single concentration (128 μg/mL) in Mueller Hinton (MH) broth against the ATCC type strain of Staphylococcus aureus. […] Compounds showing activity at concentrations up to 32-64 μg/mL in the presence/absence of serum were then tested for MIC activity against a standard set of 5 microorganisms comprising of ATCC type strains of MRSA, Enterococcus faecalis, Enterococcus faecium, VRE and Escherichia coli. CLSI (formerly NCCLS) microbroth dilution technique was used.
(§2) Each compound is initially dissolved in 100 μL of DMSO. Each solution is then diluted further in 0.9 mL of sterile MH broth to give a total volume of 1 mL (1000 μg/mL) This stock solution is then further diluted in MH broth to give a test solution with final concentration of 128 μg/mL using the following formula: 0.5 ml stock in 3.4 ml MH broth
(§3) Each test organism was subcultured from the −70° C. deep freezer onto horse blood agar. The plates were streaked to obtain isolated colonies and incubated at 35° C. in non-CO2 incubator for 24 hours. A second subculture was carried out onto horse blood agar. For each test organism, 1-2 colonies were selected from an 18-24 hour culture and inoculated into 2 ml sterile MH broth. The turbidity was adjusted to 0.5 McFarland standard.
(§4) A 1:10 dilution in MH broth (200 μL in 2 ml MH) of the 0.5 McFarland control was prepared. 5 μL of this diluted solution was used to inoculate the trays.
(§5) The trays were prepared in a similar way as mentioned above and incubated at 35° C. in a non-CO2 incubator for 18-24 hours. The plates were examined for growth after the incubation time.
(§6) After 18-24 hour incubation 5 μL from each well was then inoculated onto horse blood agar and incubated for 18-24 hours at 35° C. in a non-CO2 incubator.
(§7) If the test organism is sensitive to the compound in the broth the growth will be inhibited. Similarly, if the organism grows on the antibiotic containing medium then it is resistant to this particular antibiotic.

[2] = test system: E. Faecium 51299 VanB; assay: MIC against vancomycin-resistant enterococcus 51299 (VanB), microbroth dilution; details: MIC class; ATCC 51299 VanB
Experimental: as §1, §2, §3, §4, §5, §6, §7

[3] = test system: Staphylococcus aureus ATCC 25923; assay: MIC against S. aureus, microbroth dilution in MH broth, without or with 5% horse serum; details: MIC class; S. aureus ATCC 25923
Experimental: as §1, §2, §3, §4
100 μL of sterile MH broth was added in columns 2-12. 200 μL of test solution was added in column 1. 100 μL was transferred in column 2 giving a ½ dilution. 100 μL from column 2 was then transferred to column 3 (¼ dilution). This dilution was carried on until column 12. A second tray containing the same test solution was inoculated in a similar manner using sterile MH broth with 5% heat inactivated horse serum. 5 μL of organism solution was then added to each well. The plates were then sealed and incubated at 35° C. in a non-CO2 incubator for 18-24 hours. The plates were examined for growth after the incubation time.
as §7

[4] = test system: Staphylococcus aureus (MRSA) ATCC 33591; assay: MIC against MRSA, microbroth dilution; details: MIC class
Experimental: as §1, §2, §3, §4, §5, §6, §7

[5] = test system: Enterococcus faecium ATCC 35667; assay: MIC against E. faecium, microbroth dilution; details: MIC class
Experimental: as §1, §2, §3, §4, §5, §6, §7

Compound	S. Aureus 25923 activity [3]	other results
O=C(Nc1ccc(Cl)c(C(F)(F)F)c1)NC1COC(CO)C(n2c(NCc3ccccc3)nc3cc(C(F)(F)F)cc(Cl)c32)C1O (stereo not shown) [Compound 255]	++ (“++”: MIC (μg/mL): MIC ≦ 16)	E. Fecalis 29212 activity [1]: ++ (“++”: MIC (μg/mL): MIC ≦ 16); E. Faecium 51299 VanB activity [2]: + (“+”: MIC (μg/mL): 64 ≧ MIC > 16); S. Aureus 33591 MRSA activity [4]: ++ (“++”: MIC (μg/mL): MIC ≦ 16); E. Faecium 35667 activity [5]: − (“−”: MIC (μg/mL): MIC > 64)
O=C(NC1C(CO)OCC(NS(=O)(=O)c2ccc(Cl)c(C(F)(F)F)c2)C1O)c1ccc(-c2ccc(Cl)cc2)cc1 (stereo not shown) [Compound 12]	+ (“+”: MIC (μg/mL): 64 ≧ MIC > 16)	–
CCCCCCCCCCCCC(N)C(=O)NC1C(CO)OCC(n2cnc3cc(C(F)(F)F)cc(Cl)c32)C1O (stereo not shown) [Compound 188]	+ (“+”: MIC (μg/mL): 64 ≧ MIC > 16)	E. Fecalis 29212 activity [1]: + (“+”: MIC (μg/mL): 64 ≧ MIC > 16); E. Faecium 51299 VanB activity [2]: + (“+”: MIC (μg/mL): 64 ≧ MIC > 16); S. Aureus 33591 MRSA activity [4]: + (“+”: MIC (μg/mL): 64 ≧ MIC > 16); E. Faecium 35667 activity [5]: − (“−”: MIC (μg/mL): MIC > 64)
O=S(=O)(NC1COC(CO)C(n2c(Nc3ccc(Cl)cc3)nc3cc(C(F)(F)F)ccc32)C1O)c1ccc(C(F)(F)F)cc1 (stereo not shown) [Compound 262]	+ (“+”: MIC (μg/mL): 64 ≧ MIC > 16)	–
O=S(=O)(NC1COC(CO)C(n2c(Nc3ccc(-c4ccccc4)cc3)nc3cc(C(F)(F)F)cc(Cl)c32)C1O)c1ccc(C(F)(F)F)cc1 (stereo not shown) [Compound 273]	++ (“++”: MIC (μg/mL): MIC ≦ 16)	–
CCCCCCCCCCCCC(N)C(=O)NC1C(CO)OCC(n2c(N)nc3cc(C(F)(F)F)cc(Cl)c32)C1O (stereo not shown) [Compound 187]	++ (“++”: MIC (μg/mL): MIC ≦ 16)	E. Fecalis 29212 activity [1]: ++ (“++”: MIC (μg/mL): MIC ≦ 16); E. Faecium 51299 VanB activity [2]: ++ (“++”: MIC (μg/mL): MIC ≦ 16); S. Aureus 33591 MRSA activity [4]: ++ (“++”: MIC (μg/mL): MIC ≦ 16); E. Faecium 35667 activity [5]: + (“+”: MIC (μg/mL): 64 ≧ MIC > 16)
CCCCCCCCCCNC1C(CO)OCC(NC(=O)Nc2ccc(Cl)c(C(F)(F)F)c2)C1O (stereo not shown) [Compound 50]	+ (“+”: MIC (μg/mL): 64 ≧ MIC > 16)	E. Fecalis 29212 activity [1]: + (“+”: MIC (μg/mL): 64 ≧ MIC > 16); E. Faecium 51299 VanB activity [2]: − (“−”: MIC (μg/mL): MIC > 64); S. Aureus 33591 MRSA activity [4]: + (“+”: MIC (μg/mL): 64 ≧ MIC > 16); E. Faecium 35667 activity [5]: + (“+”: MIC (μg/mL): 64 ≧ MIC > 16)
CC(C)(C)c1ccc(CNc2nc3cc(C(F)(F)F)cc(Cl)c3n2C2C(CO)OCC(NS(=O)(=O)c3ccc(C(F)(F)F)cc3)C2O)cc1 (stereo not shown) [Compound 276]	+ (“+”: MIC (μg/mL): 64 ≧ MIC > 16)	–
O=S(=O)(NC1COC(CO)C(n2c(Nc3ccc(-c4ccccc4)cc3)nc3cc(C(F)(F)F)ccc32)C1O)c1ccc(C(F)(F)F)cc1 (stereo not shown) [Compound 264]	++ (“++”: MIC (μg/mL): MIC ≦ 16)	–
O=S(=O)(NC1COC(CO)C(n2c(Nc3ccc(C(F)(F)F)cc3)nc3cc(C(F)(F)F)ccc32)C1O)c1ccc(C(F)(F)F)cc1 (stereo not shown) [Compound 263]	++ (“++”: MIC (μg/mL): MIC ≦ 16)	–
O=S(=O)(NC1COC(CO)C(n2c(NCc3ccccc3)nc3cc(C(F)(F)F)cc(Cl)c32)C1O)c1ccc(C(F)(F)F)cc1 (stereo not shown) [Compound 274]	++ (“++”: MIC (μg/mL): MIC ≦ 16)	–
O=S(=O)(NC1COC(CO)C(n2c(NCc3ccc(-c4ccccc4)cc3)nc3cc(C(F)(F)F)cc(Cl)c32)C1O)c1ccc(C(F)(F)F)cc1 (stereo not shown) [Compound 278]	++ (“++”: MIC (μg/mL): MIC ≦ 16)	–
O=S(=O)(NC1COC(CO)C(n2c(Nc3ccc(Cl)cc3)nc3cc(C(F)(F)F)cc(Cl)c32)C1O)c1ccc(C(F)(F)F)cc1 (stereo not shown) [Compound 271]	++ (“++”: MIC (μg/mL): MIC ≦ 16)	–
O=S(=O)(NC1COC(CO)C(n2c(NCc3ccc(-c4ccccc4)cc3)nc3cc(C(F)(F)F)ccc32)C1O)c1ccc(C(F)(F)F)cc1 (stereo not shown) [Compound 269]	++ (“++”: MIC (μg/mL): MIC ≦ 16)	–
O=S(=O)(NC1COC(CO)C(n2c(NCc3ccc(Cl)cc3)nc3cc(C(F)(F)F)ccc32)C1O)c1ccc(C(F)(F)F)cc1 (stereo not shown) [Compound 266]	++ (“++”: MIC (μg/mL): MIC ≦ 16)	–
O=S(=O)(NC1COC(CO)C(n2c(NCc3ccc(Cl)cc3)nc3cc(C(F)(F)F)cc(Cl)c32)C1O)c1ccc(C(F)(F)F)cc1 (stereo not shown) [Compound 275]	++ (“++”: MIC (μg/mL): MIC ≦ 16)	–
O=S(=O)(NC1COC(CO)C(n2c(NCc3ccc4ccccc4c3)nc3cc(C(F)(F)F)ccc32)C1O)c1ccc(C(F)(F)F)cc1 (stereo not shown) [Compound 270]	++ (“++”: MIC (μg/mL): MIC ≦ 16)	–
O=C(Nc1ccc(Cl)c(C(F)(F)F)c1)NC1COC(CO)C(n2c(NCc3ccc4ccccc4c3)nc3cc(C(F)(F)F)cc(Cl)c32)C1O (stereo not shown) [Compound 261]	++ (“++”: MIC (μg/mL): MIC ≦ 16)	–
Nc1ccccc1OC1C(NC(=O)Nc2ccc(Cl)c(C(F)(F)F)c2)COC(CO)C1NC(=O)CC(N)c1ccc(-c2ccccc2)cc1 (stereo not shown) [Compound 72]	++ (“++”: MIC (μg/mL): MIC ≦ 16)	–
O=C(Nc1ccc(Cl)c(C(F)(F)F)c1)NC1COC(CO)C(n2c(NCc3ccc(-c4ccccc4)cc3)nc3cc(C(F)(F)F)cc(Cl)c32)C1O (stereo not shown) [Compound 259]	++ (“++”: MIC (μg/mL): MIC ≦ 16)	–
O=S(=O)(NC1COC(CO)C(n2c(NCc3cccc(Oc4ccccc4)c3)nc3cc(C(F)(F)F)cc(Cl)c32)C1O)c1ccc(C(F)(F)F)cc1 (stereo not shown) [Compound 277]	+ (“+”: MIC (μg/mL): 64 ≧ MIC > 16)	–
O=S(=O)(NC1COC(CO)C(n2c(NCc3cccc(Oc4ccccc4)c3)nc3cc(C(F)(F)F)ccc32)C1O)c1ccc(C(F)(F)F)cc1 (stereo not shown) [Compound 268]	++ (“++”: MIC (μg/mL): MIC ≦ 16)	–
O=C(Nc1ccc(Cl)c(C(F)(F)F)c1)NC1COC(CO)C(n2c(NCc3cccc(Oc4ccccc4)c3)nc3cc(C(F)(F)F)cc(Cl)c32)C1O (stereo not shown) [Compound 258]	++ (“++”: MIC (μg/mL): MIC ≦ 16)	–
O=S(=O)(NC1COC(CO)C(n2c(Nc3ccc(C(F)(F)F)cc3)nc3cc(C(F)(F)F)cc(Cl)c32)C1O)c1ccc(C(F)(F)F)cc1 (stereo not shown) [Compound 272]	++ (“++”: MIC (μg/mL): MIC ≦ 16)	–
O=S(=O)(NC1COC(CO)C(n2c(NCc3ccc4ccccc4c3)nc3cc(C(F)(F)F)cc(Cl)c32)C1O)c1ccc(C(F)(F)F)cc1 (stereo not shown) [Compound 279]	++ (“++”: MIC (μg/mL): MIC ≦ 16)	–
CC(C)(C)c1ccc(CNc2nc3cc(C(F)(F)F)ccc3n2C2C(CO)OCC(NS(=O)(=O)c3ccc(C(F)(F)F)cc3)C2O)cc1 (stereo not shown) [Compound 267]	++ (“++”: MIC (μg/mL): MIC ≦ 16)	–
O=S(=O)(NC1COC(CO)C(n2c(NCc3ccccc3)nc3cc(C(F)(F)F)ccc32)C1O)c1ccc(C(F)(F)F)cc1 (stereo not shown) [Compound 265]	+ (“+”: MIC (μg/mL): 64 ≧ MIC > 16)	–
